# Tests used:
# COX-1 [1] = target: T1, COX-1 (Homo sapiens, UniProt P23219); assay: Thrombin-induced thromboxane production in platelets from bypass patients treated in vitro; type: cell-based; conditions: for thromboxane production induced by thrombin: platelets from patients subjected to aorto-coronary bypass, treated in vitro
# T1 construct: prostaglandin H synthase, an enzyme present in platelets and commonly defined as COX-1; endogenous in cells; host or cells: washed platelets from donors' venous blood (healthy volunteers; patients 5 days after aorto-coronary bypass)
# Protocol: patients at 5 days from an aortic-coronary-bypass.
# (§1) The evaluation of the biologic efficacy of aspirin in platelets was made by studying Thromboxane A2 production, a specific marker of the cyclooxygenase pathway in platelets. Aspirin and/or Dipyridamole treated platelets (see above) were activated with thrombin 1 U/ml for 1 h at 37° C., and then centrifugated 1 min at 8.000 g. Thromboxane B2, a stable metabolite of TXA2, was measured in the supernatant through a commercial ELISA kit (Cayman, chemicals Co).
# MRP4-mediated transport [2] = target: T2, MRP4-mediated transport (Homo sapiens, UniProt O15439); assay: Cytosolic concentrations of ASA and salicylic acid in platelets incubated with ASA (HPLC); type: cell-based; conditions: for cytosolic concentration of acetylsalicylic acid (ASA) / cytosolic concentration of metabolite salicylic acid: platelets pretreated with inhibitor (dipyridamole 100 microM) 10 minutes before ASA 50 microM, compared to platelets treated with solvent alone (DMSO)
# T2 construct: endogenous in cells; host or cells: washed platelets (and a dense-granule suspension made from them) from donors' venous blood
# T2 sequence (O15439 1-1325): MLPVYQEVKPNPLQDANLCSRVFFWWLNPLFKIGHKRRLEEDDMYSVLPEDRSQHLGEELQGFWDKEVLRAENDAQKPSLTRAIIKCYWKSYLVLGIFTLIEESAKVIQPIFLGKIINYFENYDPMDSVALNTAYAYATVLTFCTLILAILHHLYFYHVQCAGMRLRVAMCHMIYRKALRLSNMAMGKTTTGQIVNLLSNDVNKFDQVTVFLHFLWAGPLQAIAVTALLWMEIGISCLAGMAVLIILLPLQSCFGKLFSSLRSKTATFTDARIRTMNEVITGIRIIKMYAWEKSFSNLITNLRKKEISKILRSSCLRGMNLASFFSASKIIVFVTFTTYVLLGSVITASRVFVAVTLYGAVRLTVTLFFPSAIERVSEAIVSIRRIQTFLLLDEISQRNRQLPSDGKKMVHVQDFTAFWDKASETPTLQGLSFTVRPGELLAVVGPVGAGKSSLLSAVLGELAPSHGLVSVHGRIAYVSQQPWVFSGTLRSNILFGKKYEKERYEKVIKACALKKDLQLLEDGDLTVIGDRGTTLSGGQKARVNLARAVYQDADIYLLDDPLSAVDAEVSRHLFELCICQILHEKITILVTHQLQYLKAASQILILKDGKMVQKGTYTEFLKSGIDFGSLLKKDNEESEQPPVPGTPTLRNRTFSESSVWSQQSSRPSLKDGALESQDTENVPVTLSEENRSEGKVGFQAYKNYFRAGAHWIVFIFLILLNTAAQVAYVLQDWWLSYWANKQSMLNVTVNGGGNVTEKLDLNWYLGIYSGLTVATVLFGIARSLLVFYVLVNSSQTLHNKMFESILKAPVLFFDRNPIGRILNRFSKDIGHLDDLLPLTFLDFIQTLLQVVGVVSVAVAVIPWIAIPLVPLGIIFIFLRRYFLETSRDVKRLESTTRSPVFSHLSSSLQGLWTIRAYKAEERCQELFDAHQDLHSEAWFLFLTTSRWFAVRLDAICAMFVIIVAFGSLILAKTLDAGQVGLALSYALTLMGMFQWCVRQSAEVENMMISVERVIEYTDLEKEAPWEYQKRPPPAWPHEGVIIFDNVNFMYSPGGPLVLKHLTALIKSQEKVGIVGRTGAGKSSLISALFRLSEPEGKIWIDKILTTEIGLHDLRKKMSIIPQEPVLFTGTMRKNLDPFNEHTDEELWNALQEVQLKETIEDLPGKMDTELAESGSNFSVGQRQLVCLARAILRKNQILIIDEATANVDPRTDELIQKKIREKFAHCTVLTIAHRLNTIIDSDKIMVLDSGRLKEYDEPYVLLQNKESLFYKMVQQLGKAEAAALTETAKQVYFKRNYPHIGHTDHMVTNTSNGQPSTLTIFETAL
# Excerpt: (§2) 1987, 9, 243-7) and a beta-counter for measuring the radioactive aspirin.
# Dipyridamole, in addition to inhibiting the transport mediated by these channels, is also an inhibitor of platelet activity, in that it increases the platelet concentrations of AMPc, inhibiting phosphodiesterase isoform V (PDE typeV).
# (§3) The PRP was then subjected to platelet count through blood cell count Celltac Auto Nihon Kohden (MEK 8118K). The platelets were then moved away from plasma through centrifugation of PRP, acidified at pH 6.5 with ACD (citric acid, sodium citrate and glucose 1/10 v/v), at 800×g for 10 min. and resuspended in Tyrode's buffer (CaCl2 0.20 g/L, KCl 0.20 g/L, […], NaCl 8.00 g/L, NaH2PO4*H2O), at pH 7.35 and charged with glucose and albumin. The preparation of a dense rich platelet granule suspension was made according to the method reported by (Fukami M H et al. J. Cell. Biol. 1978, 77, 389-99) and the degree of purity was verified through mepacrine Fluorimetric probe and the purity percentage was checked through the cytofluorimeter. If the concentration of the dense granules compared to the other organelles was lower than 80%, the suspension of platelet granules was not used for the study.
# The resuspended platelets in the Tyrode's buffer at the concentration of 2.5×10^8 cells/ml were treated with aspirin (50 microM) at 10° C. for 15 min and then kept at 37° C. or at 4° C. for 15 min. […]
# (§4) The entrapment of aspirin inside platelets or in the dense granules was measured through the method of Gaspari and Locatelli (Ther Drug Monit. 1987, 9, 243-7).
# [3] = tested on: cardiovascular complications; conditions: daily intake 75-150 mg/day, patients who previously had coronary disease; cited from earlier work
# COX-1 [4] = target: T1, COX-1; assay: Thrombin-induced thromboxane production of aspirinated platelets (TxB2 ELISA); type: cell-based; conditions: for thrombin-induced production of thromboxane: aspirinated platelets, with or without inhibitor added prior to ASA; for reduction of thromboxane production: inhibitor added prior to ASA, versus aspirinated platelets not pretreated
# Protocol: The resuspended platelets in the Tyrode's buffer at the concentration of 2.5×10^8 cells/ml were treated with aspirin (50 microM) at 10° C. for 15 min and then kept at 37° C. or at 4° C. for 15 min.
# MRP4 inhibitors were used such as Dipyridamole and MK571 ((E)-3-[[[3-[2-(7-chloro-2-quinolinyl)ethenyl]phenyl]-[[3-dimethylamino)-3-oxo-propyl]-thio]-methyl]thio]-propanoic acid), both at 100 microM and incubated 30 min at RT before aspirin addition.
# as §1
# [5] = oral administration; cited from earlier work
# MRP4-mediated transport [6] = target: T2, MRP4-mediated transport; assay: ASA concentration in platelet dense granule preparation treated with ASA and ATP; type: cell-based
# Protocol: as §2, §3
# In the rich platelet dense granule suspension, ATP and ASA were added to the preparation, then it was kept at 37° C. for 15 min so a to reduce the transpost mediated by MRP4; the suspension was pretreated either with apyrase, an ATP scavenger substance or with Dipyridamole 30 min before adding aspirin, or the treatment with aspirin was made at 4° C.
# as §4
# MRP4-mediated transport [7] = target: T2, MRP4-mediated transport; assay: Release of 14C-labelled ASA and of ATP from thrombin-activated platelets; type: cell-based; conditions: platelets pretreated with dipyridamole
# Protocol: Aspirin labelled with 14C (American Radiolabeled Chemicals, Inc. Saint Louis, USA) was added to the platelet suspension for 15 min at 37° C. After removing the excess of the substance marked by double centrifugation, the platelets were activated with Thrombin (0.2 U/ml) and then centrifugated. The reduction of the transport mediated by MRP4 was made through the preincubation of the platelet preparation with Dipyridamole 30 min before aspirin addition. The results are reported by evaluating the percentage of the radioactive present in the supernatant compared to the total radioactivity of the platelet preparation. ATP secretion was analyzed as a control through the luminometric method with commercial kit (Chronolog, Hevertown, Pa., USA).
# [8] = treatment of platelets with ASA at 4° C. instead of 37° C.
# [9] = pretreatment before ASA, relative to maximum obtained with ATP in external medium at 37° C.
# T1 sequence (P23219 24-599): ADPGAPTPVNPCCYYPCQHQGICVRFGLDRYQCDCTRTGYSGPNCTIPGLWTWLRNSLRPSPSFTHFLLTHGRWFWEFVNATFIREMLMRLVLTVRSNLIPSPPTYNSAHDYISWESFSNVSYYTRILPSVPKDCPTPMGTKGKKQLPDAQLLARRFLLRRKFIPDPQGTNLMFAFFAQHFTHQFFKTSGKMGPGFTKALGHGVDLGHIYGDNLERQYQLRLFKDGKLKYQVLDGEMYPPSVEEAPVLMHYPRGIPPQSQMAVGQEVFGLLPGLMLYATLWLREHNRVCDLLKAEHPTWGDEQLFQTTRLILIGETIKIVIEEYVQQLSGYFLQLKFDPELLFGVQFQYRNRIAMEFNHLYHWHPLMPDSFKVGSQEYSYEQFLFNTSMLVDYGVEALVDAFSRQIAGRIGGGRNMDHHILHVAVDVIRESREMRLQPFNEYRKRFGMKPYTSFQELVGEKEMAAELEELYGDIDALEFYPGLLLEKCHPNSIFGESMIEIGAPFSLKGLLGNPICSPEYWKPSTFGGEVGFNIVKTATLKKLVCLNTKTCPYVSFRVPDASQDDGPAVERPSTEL
thrombin-induced production of thromboxane (COX-1 [4]) [ng/10^8 cells],cytosolic concentration of acetylsalicylic acid (ASA) (MRP4-mediated transport [2]) [%],cytosolic concentration of metabolite salicylic acid (MRP4-mediated transport [2]) [%],reduction of thromboxane production (COX-1 [4]) [%],ASA concentration in platelet granules (MRP4-mediated transport [6]; [9]) [%],Molecule,thromboxane production induced by thrombin (COX-1 [1]) [ng/10^8 cells],also measured
140.22,208,202,59.2,–,CN(C)C(=O)CCSC(SCCC(=O)O)c1cccc(/C=C/c2ccc3ccc(Cl)cc3n2)c1 (centres unmarked) [MK-571],–,–
–,110,120,–,–,"Clc1cccc(Nc2nnc(-c3ccccc3)c3ccccc23)c1 [MY-5445, 1-(3-chlorophenylamino)-4-phenylphthalazine]",–,–
142.7,285,293,58,41.7,"OCCN(CCO)c1nc(N2CCCCC2)c2nc(N(CCO)CCO)nc(N3CCCCC3)c2n1 [dipyridamole, 2,6-bis-(diethanolamino)-4,8-dipiperidino-(5,4-d)-pyrimidine]",499.8±247.7,thromboxane production with respect to platelets treated with aspirin alone (COX-1 [1]; platelets from bypass patients pretreated in vitro before aspirin): 35%; release of radiolabelled ASA after activation with thrombin (MRP4-mediated transport [7]; thrombin 0.2 U/ml): absent; ATP released by the platelets (MRP4-mediated transport [7]; thrombin-activated): 1.8 ± 0.3 nmol
–,–,–,–,56.1,apyrase,–,–

Molecule,thrombin-induced production of thromboxane (COX-1 [4]) [ng/10^8 cells],cytosolic concentration of acetylsalicylic acid (ASA) (MRP4-mediated transport [2]) [%],cytosolic concentration of metabolite salicylic acid (MRP4-mediated transport [2]) [%],reduction of thromboxane production (COX-1 [4]) [%],ASA concentration in platelet granules (MRP4-mediated transport [6]; [9]) [%],thromboxane production induced by thrombin (COX-1 [1]) [ng/10^8 cells],also measured
"CC(=O)Oc1ccccc1C(=O)O [ASA, acetylsalicylic acid]",343.7,–,–,–,–,1437.0±549.1,"increase of cytosolic concentration of ASA (MRP4-mediated transport [2]; [8]): 240%; increase of cytosolic concentration of salicylate (MRP4-mediated transport [2]; [8]): 160%; reduction of the risk of cardiovascular complications (myocardial infarction, cerebral infarction and vascular death) [3]: 25%; bioavailability [5]: 40-50%; half-life [5]: 15 to 20 min; plasma concentration peak registered after [5]: 30 to 40 min; platelet inhibition manifested after administration [5]: one; ASA concentration in platelet granules (MRP4-mediated transport [6]; incubation of ASA at 4° C., relative to maximum obtained with ATP at 37° C.): 53.6%"

# From US20180078569A1, “KITS FOR INDENTIFYING AND TREATING SUBJECTS RESISTANT TO ACETYL SALICYLIC ACID” (priority 2006, published 2018)
